Experimental data: patent US20250009815A1, “COMPOSITION FOR COMPETITIVE INHIBITION OF PATHOGENS AND RESTORATION OF MICROBIAL ECOLOGICAL BALANCE” (priority 2019, published 2025)
Read-outs that look alike come from different tables or passages of the source.

Legend:
Type in all cases: cell-based
[1] = test system: VP06, identified as Candida albicans
Text: (§1) Antimicrobial activities against isolated vaginal pathogens (i.e. VP01, VP02, VP06, VP03, VP04 and VP05) were individually screened and analyzed to conclude and find effective probiotic compositions.
(§2) Different combination of selected probiotics strains with variation in potency were formed and underwent potential antimicrobial effect against isolated vaginal bacterial and fungal pathogens. The extents of zone of inhibition in antimicrobial activity were considered for selection of formulation. The probiotic compositions of the present invention comprise (a) Bacillus coagulans (B.C.); (b) Bacillus subtilis (B.S.); (c) citric acid (CA); (d) gallic acid (GA); (e) beta-cyclodextrin (adhesive); (f) allentoin and (g) a pH regulator (h) lanolin (i) polyethylene glycol (j) a cooling agent etc., and (k) a bioadhesive.
(§3) The zones of inhibition were also examined for each individual components at the same concentration levels as present in the respective combined formulations.
Vaginal swabs obtained from infected patients were grown on Potato Dextrose Agar (PDA) media, and thereafter single colonies were re-streaked on Potato Dextrose Agar plates to obtain fungal isolates, which were designated as VP06, VP02 and VP01. Potato Dextrose Agar is a common medium usually practiced to isolate and culture various fungi only, specifically applicable for yeast or fungi.

[2] = test system: VP01 (suspected fungal vaginal pathogen); experiment: Zone of inhibition against isolated vaginal pathogen VP01
Text: as §1, §2, §3

[3] = test system: VP02 (suspected fungal vaginal pathogen); experiment: Zone of inhibition against isolated vaginal pathogen VP02
Text: as §1, §2, §3

[4] = test system: VP03, identified as Gardnerella vaginalis; experiment: Zone of inhibition against isolated vaginal pathogen VP03
Text: as §1, §2, §3

[5] = test system: VP05 (suspected bacterial vaginal pathogen); experiment: Zone of inhibition against isolated vaginal pathogen VP05
Text: as §1, §2, §3

[6] = test system: VP04 (suspected bacterial vaginal pathogen); experiment: Zone of inhibition against isolated vaginal pathogen VP04
Text: as §1, §2, §3

[7] = Table 1 initial studies, n-i = no zone of inhibition
[8] = Table 4, amounts as in formulation A: B.c 700, B.s 25 million cfu, CA 10, GA 100 mg, n-i = no zone
[9] = Table 5, amounts as in formulation B: B.c 550, B.s 125 million cfu, CA 20, GA 60 mg, n-i = no zone
[10] = Table 6, amounts as in formulation C: B.c 350, B.s 350 million cfu, CA 20, GA 40 mg, n-i = no zone
[11] = Table 7, amounts as in formulation D: B.c 125, B.s 550 million cfu, CA 60, GA 20 mg, n-i = no zone
[12] = Table 8, amounts as in formulation E: B.c 25, B.s 700 million cfu, CA 100, GA 10 mg, n-i = no zone

## O=C(O)CC(O)(CC(=O)O)C(=O)O [Citric Acid (CA), citric acid]
[1]; [7]
  ZONE OF INHIBITION VP06: n-i
[1]; [8]
  ZONE OF INHIBITION VP06: n-i
[1]; [9]
  ZONE OF INHIBITION VP06: n-i
[1]; [10]
  ZONE OF INHIBITION VP06: n-i
[1]; [11]
  ZONE OF INHIBITION VP06: n-i
[1]; [12]
  ZONE OF INHIBITION VP06: n-i
[2]; [7]
  ZONE OF INHIBITION VP01: 41 mm
[2]; [8]
  ZONE OF INHIBITION VP01: n-i
[2]; [9]
  ZONE OF INHIBITION VP01: n-i
[2]; [10]
  ZONE OF INHIBITION VP01: 23 mm
[2]; [11]
  ZONE OF INHIBITION VP01: 22 mm
[2]; [12]
  ZONE OF INHIBITION VP01: 25 mm
[3]; [7]
  ZONE OF INHIBITION VP02: 30 mm
[3]; [8]
  ZONE OF INHIBITION VP02: n-i
[3]; [9]
  ZONE OF INHIBITION VP02: n-i
[3]; [10]
  ZONE OF INHIBITION VP02: n-i
[3]; [11]
  ZONE OF INHIBITION VP02: n-i
[3]; Table 8, amounts as in formulation E: B.c 25, B.s 700 million cfu, CA 100, GA 10 mg, n-i = no zone, listed as CA
  ZONE OF INHIBITION VP02: n-i
[3]; Table 8, amounts as in formulation E: B.c 25, B.s 700 million cfu, CA 100, GA 10 mg, n-i = no zone, listed as Citric acid
  ZONE OF INHIBITION VP02: not active
[4]; [7]
  ZONE OF INHIBITION VP03: 10 mm
[4]; Table 4, amounts as in formulation A: B.c 700, B.s 25 million cfu, CA 10, GA 100 mg, n-i = no zone, listed as CA
  ZONE OF INHIBITION VP03: n-i
[4]; Table 4, amounts as in formulation A: B.c 700, B.s 25 million cfu, CA 10, GA 100 mg, n-i = no zone, listed as Citric Acid
  ZONE OF INHIBITION VP03: unable to cause any inhibitory effect
[4]; [9]
  ZONE OF INHIBITION VP03: 7 mm
[4]; [10]
  ZONE OF INHIBITION VP03: 8 mm
[4]; Table 7, amounts as in formulation D: B.c 125, B.s 550 million cfu, CA 60, GA 20 mg, n-i = no zone, listed as CA
  ZONE OF INHIBITION VP03: n-i
[4]; Table 7, amounts as in formulation D: B.c 125, B.s 550 million cfu, CA 60, GA 20 mg, n-i = no zone, listed as Citric acid
  ZONE OF INHIBITION VP03: not active
[4]; [12]
  ZONE OF INHIBITION VP03: 9 mm
[5]; [7]
  ZONE OF INHIBITION VP05: 19 mm
[5]; [8]
  ZONE OF INHIBITION VP05: n-i
[5]; [9]
  ZONE OF INHIBITION VP05: n-i
[5]; [10]
  ZONE OF INHIBITION VP05: 8 mm
[5]; [11]
  ZONE OF INHIBITION VP05: 8 mm
[5]; [12]
  ZONE OF INHIBITION VP05: 10 mm
[6]; [7]
  ZONE OF INHIBITION VP04: 11 mm
[6]; [8]
  ZONE OF INHIBITION VP04: n-i
[6]; [9]
  ZONE OF INHIBITION VP04: n-i
[6]; [10]
  ZONE OF INHIBITION VP04: 10 mm
[6]; [11]
  ZONE OF INHIBITION VP04: 10 mm
[6]; [12]
  ZONE OF INHIBITION VP04: 11 mm

## O=C(O)c1cc(O)c(O)c(O)c1 [Gallic Acid (GA), gallic acid]
[1]; [7]
  ZONE OF INHIBITION VP06: 9 mm
[1]; [8]
  ZONE OF INHIBITION VP06: n-i
[1]; [9]
  ZONE OF INHIBITION VP06: n-i
[1]; [10]
  ZONE OF INHIBITION VP06: n-i
[1]; [11]
  ZONE OF INHIBITION VP06: N-i
[1]; [12]
  ZONE OF INHIBITION VP06: n-i
[2]; [7]
  ZONE OF INHIBITION VP01: 35 mm
[2]; [8]
  ZONE OF INHIBITION VP01: 19 mm
[2]; [9]
  ZONE OF INHIBITION VP01: 17 mm
[2]; [10]
  ZONE OF INHIBITION VP01: 16 mm
[2]; [11]
  ZONE OF INHIBITION VP01: 16 mm
[2]; [12]
  ZONE OF INHIBITION VP01: 13 mm
[3]; [7]
  ZONE OF INHIBITION VP02: 35 mm
[3]; [8]
  ZONE OF INHIBITION VP02: 16 mm
[3]; [9]
  ZONE OF INHIBITION VP02: 15 mm
[3]; [10]
  ZONE OF INHIBITION VP02: 15 mm
[3]; [11]
  ZONE OF INHIBITION VP02: 18 mm
[3]; Table 8, amounts as in formulation E: B.c 25, B.s 700 million cfu, CA 100, GA 10 mg, n-i = no zone, listed as GA
  ZONE OF INHIBITION VP02: n-i
[3]; Table 8, amounts as in formulation E: B.c 25, B.s 700 million cfu, CA 100, GA 10 mg, n-i = no zone, listed as Gallic Acid
  ZONE OF INHIBITION VP02: not active
[4]; [7]
  ZONE OF INHIBITION VP03: n-i
[4]; [8]
  ZONE OF INHIBITION VP03: 8 mm
[4]; [9]
  ZONE OF INHIBITION VP03: 5 mm
[4]; [10]
  ZONE OF INHIBITION VP03: 7 mm
[4]; Table 7, amounts as in formulation D: B.c 125, B.s 550 million cfu, CA 60, GA 20 mg, n-i = no zone, listed as GA
  ZONE OF INHIBITION VP03: n-i
[4]; Table 7, amounts as in formulation D: B.c 125, B.s 550 million cfu, CA 60, GA 20 mg, n-i = no zone, listed as Gallic Acid
  ZONE OF INHIBITION VP03: not active
[4]; [12]
  ZONE OF INHIBITION VP03: n-i
[5]; [7]
  ZONE OF INHIBITION VP05: 11 mm
[5]; [8]
  ZONE OF INHIBITION VP05: 7 mm
[5]; [9]
  ZONE OF INHIBITION VP05: 7 mm
[5]; [10]
  ZONE OF INHIBITION VP05: 6 mm
[5]; [11]
  ZONE OF INHIBITION VP05: 6 mm
[5]; [12]
  ZONE OF INHIBITION VP05: 6 mm
[6]; [7]
  ZONE OF INHIBITION VP04: 9 mm
[6]; [8]
  ZONE OF INHIBITION VP04: 10 mm
[6]; [9]
  ZONE OF INHIBITION VP04: 10 mm
[6]; [10]
  ZONE OF INHIBITION VP04: 9 mm
[6]; [11]
  ZONE OF INHIBITION VP04: 9 mm
[6]; [12]
  ZONE OF INHIBITION VP04: 7 mm
